Source: article PMC6753081 (Nature Communications, 2019)

T1: FKBP12 (C. albicans) (Candida albicans, UniProt P28870)
T1 construct: gene RBP1; E. coli BL21(DE3), N-terminal 6xHis cut by thrombin, 15N/13C labelled, free FKBP12
T1 sequence (P28870 1-124): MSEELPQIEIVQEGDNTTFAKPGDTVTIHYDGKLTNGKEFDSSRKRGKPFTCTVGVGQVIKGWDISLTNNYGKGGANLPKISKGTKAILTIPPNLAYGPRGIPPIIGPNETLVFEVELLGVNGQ

B1: C. neoformans calcineurin regulatory subunit (CnB), residues 1-175 (natural protein)
chain: MGAAESSMFNSLEKNSNFSGPELMRLKKRFMKLDKDGSGSIDKDEFLQIPQIANNPLAHRMIAIFDEDGSGTVDFQEFVGGLSAFSSKGGRDEKLRFAFKVYDMDRDGYISNGELYLVLKQMVGNNLKDQQLQQIVDKTIMEADKDGDGKLSFEEFTQMVASTDIVKQMTLEDLF
notes: also called calcineurin B

Experiments:
FKBP12 (C. albicans) = target: T1, FKBP12 (C. albicans); assay type: binding; conditions: pH […] °C, […] phosphate, […] NaCl
[1] = target: T2, A. fumigatus CN/FKBP12 complex (CnA/CnB/AfFKBP12) (Aspergillus fumigatus, UniProt Q4WDF2+Q4WLV6+Q4WUR1); conditions: ternary complex CnA/CnB-FK506-FKBP12; at the FKBP12-BBH/CnB interface, not the phosphatase active site
T2 construct: gene cnaA
T2 sequence (Q4WDF2 entry or part of it): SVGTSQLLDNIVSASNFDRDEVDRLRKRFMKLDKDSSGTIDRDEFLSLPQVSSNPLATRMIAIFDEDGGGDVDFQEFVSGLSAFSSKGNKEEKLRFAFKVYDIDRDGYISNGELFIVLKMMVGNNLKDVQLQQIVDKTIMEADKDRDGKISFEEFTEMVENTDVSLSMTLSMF
T2 sequence (Q4WUR1 2-370): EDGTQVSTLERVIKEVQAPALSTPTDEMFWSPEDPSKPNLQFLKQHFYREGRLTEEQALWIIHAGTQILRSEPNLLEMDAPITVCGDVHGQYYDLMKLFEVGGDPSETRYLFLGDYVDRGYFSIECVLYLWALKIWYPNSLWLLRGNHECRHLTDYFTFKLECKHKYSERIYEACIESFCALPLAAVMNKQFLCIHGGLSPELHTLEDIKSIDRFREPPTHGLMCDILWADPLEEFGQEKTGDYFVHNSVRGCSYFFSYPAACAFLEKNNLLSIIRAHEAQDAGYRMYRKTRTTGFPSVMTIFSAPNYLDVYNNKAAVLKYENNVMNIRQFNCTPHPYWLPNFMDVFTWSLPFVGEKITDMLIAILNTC
T2 sequence (Q4WLV6 2-112): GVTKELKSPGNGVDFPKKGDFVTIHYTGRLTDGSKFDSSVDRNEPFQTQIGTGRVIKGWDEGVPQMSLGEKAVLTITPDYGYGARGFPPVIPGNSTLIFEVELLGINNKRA

[2] = target: T3, C. neoformans calcineurin catalytic subunit (CnA), residues 34-402 (C. neoformans, UniProt O42773 34-402); test: crystal structure; conditions: both partners purified
T3 construct: also called calcineurin A
T3 sequence (O42773 34-402): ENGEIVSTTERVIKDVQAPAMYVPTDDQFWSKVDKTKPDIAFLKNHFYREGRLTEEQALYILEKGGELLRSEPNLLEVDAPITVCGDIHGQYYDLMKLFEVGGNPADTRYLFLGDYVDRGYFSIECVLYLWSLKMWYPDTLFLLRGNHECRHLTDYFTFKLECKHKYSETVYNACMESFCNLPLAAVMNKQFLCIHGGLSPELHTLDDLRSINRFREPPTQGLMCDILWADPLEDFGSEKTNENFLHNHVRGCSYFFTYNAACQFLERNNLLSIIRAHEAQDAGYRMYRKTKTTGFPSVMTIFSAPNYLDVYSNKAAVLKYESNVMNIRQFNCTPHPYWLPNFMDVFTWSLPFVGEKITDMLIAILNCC

Molecule	NMR resonance assignment of apo and FK506-bound state (FKBP12 (C. albicans))	X-ray crystal structure, 2.50 Å [1]	binding result [2]
C=CC[C@@H]1/C=C(\C)C[C@H](C)C[C@H](OC)[C@H]2O[C@@](O)(C(=O)C(=O)N3CCCC[C@H]3C(=O)O[C@H](/C(C)=C/[C@@H]3CC[C@@H](O)[C@H](OC)C3)[C@H](C)[C@@H](O)CC1=O)[C@H](C)C[C@@H]2OC [FK506]	A. fumigatus and C. albicans were determined in both the apo and FK506 bound states	A single copy of the complex was placed per asymmetric unit (PDB ID: 6TZ7)	–
B1	–	–	binds
